Molecular target: T1, 3-phosphoinositide-dependent protein kinase 1 (Homo sapiens, UniProt O15530)
T1 sequence (O15530 whole entry): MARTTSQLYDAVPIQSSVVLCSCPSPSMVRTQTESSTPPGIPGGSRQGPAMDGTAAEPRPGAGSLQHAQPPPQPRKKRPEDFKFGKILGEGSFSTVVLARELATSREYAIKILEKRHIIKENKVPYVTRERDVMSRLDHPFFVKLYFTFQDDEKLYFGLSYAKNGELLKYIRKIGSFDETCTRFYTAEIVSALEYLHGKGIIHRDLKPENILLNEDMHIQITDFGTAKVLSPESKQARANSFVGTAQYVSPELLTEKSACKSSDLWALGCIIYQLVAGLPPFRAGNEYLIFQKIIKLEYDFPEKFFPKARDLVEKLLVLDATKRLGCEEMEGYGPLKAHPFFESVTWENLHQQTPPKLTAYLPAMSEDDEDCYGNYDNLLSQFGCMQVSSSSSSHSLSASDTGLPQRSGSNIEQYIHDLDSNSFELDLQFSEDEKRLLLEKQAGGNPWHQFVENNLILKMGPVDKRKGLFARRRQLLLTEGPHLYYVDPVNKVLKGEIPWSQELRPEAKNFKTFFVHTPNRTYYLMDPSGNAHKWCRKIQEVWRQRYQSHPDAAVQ
Assay: PDK1-mediated AKT2 Activation Assay (cAKT2 33P-SPA)
Conditions: pH 7.2; 22 °C
Experimental: The coupled assay can detect inhibitors of AKT2 activation, as well as direct inhibitors of PDK1 or AKT2. Inactive AKT2 is activated in situ by incubating with PDK1 and PtdIns-3, 4-P2 in the presence of compound, 33P-ATP, and a biotinylated peptide substrate for AKT2. The peptide is captured on streptavidin-coated SPA beads for detection.

Row | SMILES | IC50
1 | O=C(Nc1cccc(Nc2ncc(Br)c(NCCc3c[nH]cn3)n2)c1)N1CCCC1 [N-{3-[(5-bromo-4-{[2-(1H-imidazol-4-yl)ethyl]amino}pyrimidin-2-yl)amino]phenyl}pyrrolidine-1-carboxamide] | 12 nM
2 | O=C(NCCCNc1nc(Nc2cccc(NC(=O)N3CCCC3)c2)ncc1I)c1cccs1 [N-{3-[(5-iodo-4-{[3-(thiophen-2-ylformamido)propyl]amino}pyrimidin-2-yl)amino]phenyl}pyrrolidine-1-carboxamide] | 6 nM
